Several values for one entry are separate records, joined by “and”; a condition that tells them apart may be missing. Identical values can stand only once. ± gives the expanded uncertainty stated by the source.
Settings: Liquid

| vapor or sublimation pressure (298.15 K) | vapor or sublimation pressure (303.15 K) | vapor or sublimation pressure (308.15 K) | vapor or sublimation pressure (313.15 K) | vapor or sublimation pressure (318.15 K) | vapor or sublimation pressure (323.15 K) | Compound |
| --- | --- | --- | --- | --- | --- | --- |
| 7.876 ± 0.32 kPa | 10.47 ± 0.38 kPa | 13.77 ± 0.47 kPa | 17.93 ± 0.57 kPa | – | – | CCO [ethanol] |
| 12.7 ± 0.44 kPa | 15.92 ± 0.52 kPa | 19.66 ± 0.61 kPa | 24.33 ± 0.73 kPa | – | – | c1ccccc1 [benzene] |
| 16.97 ± 0.071 kPa and 16.96 ± 0.55 kPa | 21.88 ± 0.086 kPa and 21.88 ± 0.67 kPa | 27.96 ± 0.11 kPa and 27.96 ± 0.82 kPa | 35.44 ± 0.13 kPa and 35.45 ± 1 kPa | 44.54 ± 0.16 kPa | 55.58 ± 0.19 kPa | CO [methanol] |
| 2.786 ± 0.19 kPa | 3.826 ± 0.22 kPa | 5.199 ± 0.25 kPa | 6.986 ± 0.3 kPa | – | – | CCCO [propan-1-ol] |
